Like-named read-outs stand apart in the source and are kept apart here. No end group written: not given here.
Key:
TcdB [1] = molecular target: T1, TcdB (Clostridioides difficile, UniProt P18177); conditions: 100 µM peptide, 200 pM TcdB, added simultaneously, FCS-free medium, 7 h, 37 °C; n = 9
Target sequence in this assay (P18177 2-2366 limits assumed): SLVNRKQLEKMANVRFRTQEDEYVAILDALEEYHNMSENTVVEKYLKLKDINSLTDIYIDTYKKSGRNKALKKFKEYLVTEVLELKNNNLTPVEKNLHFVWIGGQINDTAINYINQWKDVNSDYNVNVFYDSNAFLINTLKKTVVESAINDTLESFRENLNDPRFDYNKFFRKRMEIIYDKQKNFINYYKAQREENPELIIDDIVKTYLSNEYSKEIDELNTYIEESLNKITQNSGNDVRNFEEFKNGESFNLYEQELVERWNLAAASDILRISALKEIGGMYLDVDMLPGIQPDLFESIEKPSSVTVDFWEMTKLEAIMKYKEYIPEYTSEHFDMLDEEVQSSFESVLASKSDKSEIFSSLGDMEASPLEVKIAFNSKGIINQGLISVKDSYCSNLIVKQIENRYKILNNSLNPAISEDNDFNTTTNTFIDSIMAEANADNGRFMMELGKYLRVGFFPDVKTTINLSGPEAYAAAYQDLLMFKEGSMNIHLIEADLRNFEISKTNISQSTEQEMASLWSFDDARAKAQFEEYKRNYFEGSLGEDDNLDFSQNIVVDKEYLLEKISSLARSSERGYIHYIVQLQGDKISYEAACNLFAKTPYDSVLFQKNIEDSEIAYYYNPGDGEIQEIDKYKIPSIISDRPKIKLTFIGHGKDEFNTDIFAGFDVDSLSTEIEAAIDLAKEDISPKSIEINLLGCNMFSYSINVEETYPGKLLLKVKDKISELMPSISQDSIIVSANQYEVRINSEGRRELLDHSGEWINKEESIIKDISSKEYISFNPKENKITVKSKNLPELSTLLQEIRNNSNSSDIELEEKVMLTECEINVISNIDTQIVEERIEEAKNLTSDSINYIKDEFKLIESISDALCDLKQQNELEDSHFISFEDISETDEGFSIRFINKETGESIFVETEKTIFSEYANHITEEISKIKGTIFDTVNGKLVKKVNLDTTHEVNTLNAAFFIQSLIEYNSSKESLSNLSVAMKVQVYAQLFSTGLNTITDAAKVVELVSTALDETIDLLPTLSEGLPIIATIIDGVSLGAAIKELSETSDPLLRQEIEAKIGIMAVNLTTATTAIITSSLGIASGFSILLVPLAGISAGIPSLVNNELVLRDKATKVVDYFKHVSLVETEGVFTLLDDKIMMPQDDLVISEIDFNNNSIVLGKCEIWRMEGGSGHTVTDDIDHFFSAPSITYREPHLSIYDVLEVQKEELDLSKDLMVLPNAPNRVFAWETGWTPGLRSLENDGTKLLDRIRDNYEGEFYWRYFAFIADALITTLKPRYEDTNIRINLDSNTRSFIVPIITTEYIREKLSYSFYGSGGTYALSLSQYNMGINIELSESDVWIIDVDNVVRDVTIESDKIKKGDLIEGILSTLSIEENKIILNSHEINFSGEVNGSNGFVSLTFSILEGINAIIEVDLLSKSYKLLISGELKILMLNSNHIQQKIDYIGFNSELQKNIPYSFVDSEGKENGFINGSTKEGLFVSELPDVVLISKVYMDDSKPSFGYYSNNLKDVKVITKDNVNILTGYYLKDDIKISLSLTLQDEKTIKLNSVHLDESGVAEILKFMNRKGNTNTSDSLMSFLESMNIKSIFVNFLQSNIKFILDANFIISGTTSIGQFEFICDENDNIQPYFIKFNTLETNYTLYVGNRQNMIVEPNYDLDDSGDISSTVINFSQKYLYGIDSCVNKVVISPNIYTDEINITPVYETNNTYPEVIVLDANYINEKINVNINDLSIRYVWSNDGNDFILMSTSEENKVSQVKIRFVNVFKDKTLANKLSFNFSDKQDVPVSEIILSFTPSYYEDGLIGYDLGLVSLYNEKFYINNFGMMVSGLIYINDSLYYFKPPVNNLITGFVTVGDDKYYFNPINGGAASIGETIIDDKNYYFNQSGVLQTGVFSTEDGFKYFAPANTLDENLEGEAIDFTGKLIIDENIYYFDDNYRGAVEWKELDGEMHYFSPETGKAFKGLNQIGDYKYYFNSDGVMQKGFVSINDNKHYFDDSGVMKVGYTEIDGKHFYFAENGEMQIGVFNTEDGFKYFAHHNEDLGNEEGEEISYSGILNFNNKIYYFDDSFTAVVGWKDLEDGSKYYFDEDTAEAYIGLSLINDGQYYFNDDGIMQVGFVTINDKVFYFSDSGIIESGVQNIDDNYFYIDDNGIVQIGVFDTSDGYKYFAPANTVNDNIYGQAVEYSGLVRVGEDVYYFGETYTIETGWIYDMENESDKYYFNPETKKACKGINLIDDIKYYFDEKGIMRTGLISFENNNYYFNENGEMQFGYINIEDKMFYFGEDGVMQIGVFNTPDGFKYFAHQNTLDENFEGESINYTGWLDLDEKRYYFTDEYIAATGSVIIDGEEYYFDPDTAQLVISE

TcdB [2] = molecular target: T1, TcdB; conditions: Angie peptides 100 µM, α-defensin-6 6 µM, TcdB 50 ng in 25 µl PBS, 30 min, 37 °C, supernatant/pellet immunoblot; n = 3-4
Description: For the precipitation analysis, TcdB (50 ng equals 2 ng/µl) and inhibitors, α-defensin-6 (6 µM) and Angie peptides or water (solvent control) were incubated for 30 min in a total volume of 25 µl PBS. Next, the samples were centrifuged for 20 min, 14,000 rpm at 4 °C for separation of supernatant and pellet fraction. […] TcdB was detected using an anti-TcdB antibody (1:1000, Anti-Clostridium difficile Toxin B antibody, Abcam, Cambridge, UK).

C. difficile = conditions: previously shown; cited from earlier work
Description: Here, initially higher concentrations of the Angie peptides were tested and inhibition zones around the Angie peptides and the positive control were measured (Supplementary Fig. 1).

zebrafish embryos = conditions: in vivo; cited from earlier work
TcdB [3] = molecular target: T1, TcdB; assay: cell-based
Target sequence in this assay (P18177 2-2366 limits assumed): as above

in vitro = in vitro ADME, human; conditions: 37 °C
Description: The half-life of Angie 5 in plasma was calculated according to a work by Freisem et al., with minor modifications. A sample (0.5 ml) of human plasma was spiked with 20 µM Angie 5 and incubated at 37 °C. Aliquots (50 µl) were separated at 0, 15, 30, 60, and 120 min, respectively, and mixed with 250 µl 0.1% TFA in acetonitrile at − 20 °C. The mixture was centrifuged at 13,000 rpm for 30 s, and 150 µl of the supernatant was mixed with 150 µl 20% acetic acid in ice. The samples were analyzed with an Axima Confidence MALDI-TOF MS (Shimadzu) in linear mode using exactly the same measurement conditions for all samples spotted on a 384-well plate. Wells were coated with 0.5 µl of 10 mg/ml CHCA previously dissolved in TFA/water/acetonitrile/2-propanol (2.5/47.5/25/25, v/v), and the solvent was allowed to evaporate. Then, each sample (0.5 µl), previously mixed with matrix (0.5 µl), was applied onto the dry pre-coated well, and the solvent was allowed to evaporate. Laser shots were automatically done following a regular circular raster of a diameter of 2000 μm and spacing of 200 μm on each well; 100 profiles were acquired per sample, and 20 shots were accumulated per profile. An accelerating voltage of 20 kV was applied to the ion source. […] The half-life was calculated using GraphPad Prism version 10.3.1 for Windows, GraphPad Software, Boston, Massachusetts USA, www.graphpad.com. […]

## KDINTFIHGNKRSIKAI [reference Angie]
TcdB [1]
  Protection from TcdB-mediated cell rounding, CaCo-2 cells: did not inhibit

## α-defensin-6: human peptide, positive control for precipitation of TcdB (PeptaNova)
TcdB [2]
  Precipitate formation with TcdB: precipitate formation

## KGINTFIHGNKRSIKAI [Angie 6]
TcdB [1]
  Protection from TcdB-mediated cell rounding, CaCo-2 cells: did not inhibit

## LL-37: antimicrobial peptide used as positive control in the radial diffusion assay (Anaspec) (LLGDFFRKSKEKIGKEFKRIVQRIKDFLRNLVPRTES; Antibacterial peptide LL-37; UniProt P49913 134-170, looked up)
C. difficile
  Activity against C. difficile: activity against C. difficile

## KAINTFIHGNKISIKAI [Angie 1]
Zebrafish embryos
  Toxicity for zebrafish embryos: not toxic

## KFINIFIHGNKRSIKAI [Angie 5]
TcdB [1]
  Protection from TcdB-mediated cell rounding, CaCo-2 cells: protected
TcdB [3]
  IC50: 46.3 µM
TcdB [3]; IC50 of TcdB-mediated cell rounding, Vero cells, 10 pM TcdB, no preincubation, 3 h after addition, FCS-free medium, ± SEM 1.08 µM, four-parameter fit
  IC50: 40.9 µM
In vitro; fit of signal area vs. time, human plasma, 20 µM, MALDI-TOF
  K of one-phase decay curve in human plasma: 0.1274
In vitro; human plasma spiked with 20 µM, aliquots at 0, 15, 30, 60, 120 min, 0.1% TFA in acetonitrile, MALDI-TOF MS peak area, one-phase decay fit, n = 3 per time point
  half-life at 20 µM: 5.44 min

## KLINTFIHGNKRSIKAI [Angie 7]
TcdB [1]
  Protection from TcdB-mediated cell rounding, CaCo-2 cells: did not inhibit
